Article PMC8933493, “Mechanism and biomass association of glucuronoyl esterase: an α/β hydrolase with potential in biomass conversion” (Nature Communications, 2022)

Tests used:
OtCE15A [1] = target: T1, OtCE15A (Opitutus terrae, UniProt B1ZMF4); experiment: continuous coupled assay, K-URONIC kit; Arrhenius analysis of kcat; format: biochemical; settings: 20 to 40 °C in 5 °C steps
T1 construct: gene Oter_0116; His6-tag; no CBM; E. coli BL21(DE3); IMAC and size exclusion; active-site Ser267, Arg268, Glu290, Asp356, His408
T1 sequence (B1ZMF4 entry or part of it): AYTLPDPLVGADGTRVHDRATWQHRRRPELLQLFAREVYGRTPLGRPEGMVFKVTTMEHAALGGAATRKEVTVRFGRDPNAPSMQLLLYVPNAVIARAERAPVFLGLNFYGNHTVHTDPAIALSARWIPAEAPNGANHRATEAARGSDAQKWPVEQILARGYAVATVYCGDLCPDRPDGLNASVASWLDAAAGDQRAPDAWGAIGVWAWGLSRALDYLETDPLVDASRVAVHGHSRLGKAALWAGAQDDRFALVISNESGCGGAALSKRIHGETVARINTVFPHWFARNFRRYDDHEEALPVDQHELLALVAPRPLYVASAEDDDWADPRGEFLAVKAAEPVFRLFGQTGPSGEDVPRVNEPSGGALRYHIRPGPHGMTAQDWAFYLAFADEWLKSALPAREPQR

OtCE15A [2] = target: T2, OtCE15A (Opitutus terrae, UniProt B1ZMF4, R268A); experiment: X-ray crystal structure after […] s soak in saturated BnzGlcA; format: binding; settings: covalent; glucuronoyl acyl-enzyme intermediate formed from the soaked substrate; pH 6.5 crystals, 10% DMSO
T2 construct: gene Oter_0116; His6-tag; no CBM; E. coli BL21(DE3); IMAC and size exclusion; active-site Ser267, Arg268, Glu290, Asp356, His408
T2 sequence (B1ZMF4 entry or part of it R268A): as the sequence (B1ZMF4 entry or part of it) above, with R236A counted along it

OtCE15A [3] = target: T1, OtCE15A; experiment: continuous coupled assay, K-URONIC kit (Megazyme); format: biochemical; settings: duplicate, at least 8 substrate concentrations
Description: continuous coupled assay, K-URONIC kit (Megazyme) on OtCE15A

Row | Km (OtCE15A [3]) | SMILES | continuous coupled assay, K-URONIC kit; Arrhenius analysis of kcat (OtCE15A [1]) | X-ray crystal structure after 30 s soak in saturated BnzGlcA (OtCE15A [2])
1 | – | O=C(OCc1ccccc1)[C@H]1OC(O)[C@H](O)[C@@H](O)[C@@H]1O (stereo partly drawn) [BnzGlcA, benzyl GlcA] | small substrate benzyl GlcA (BnzGlcA) by determining kcat at different temperatures | after soaking with the BnzGlcA substrate clearly shows the formation of a CI
2 | 2770 ± 150 µM | COC(=O)[C@H]1OC(O)[C@H](O)[C@@H](O)[C@@H]1O (stereo partly drawn) [MeGlcA, GlcA methyl ester] | – | –
